Results taken from paper PMC5761851, “Application of a phenotypic drug discovery strategy to identify biological and chemical starting points for inhibition of TSLP production in lung epithelial cells” (PLoS ONE, 2018).
Where “and” joins values, the source holds several entries; their conditions need not be identical. Identical values can stand only once. Like-named read-outs stand apart in the source and are kept apart here.

Columns and labels:
Syk = Syk (Homo sapiens, UniProt P43405); assay: Enzymatic Syk kinase activity assay; assay type: biochemical
LAD2 cells degranulation = assay: Syk dependent LAD2 cells degranulation; assay type: cell-based, human
Procedure: Normal human bronchial epithelial cells (NHBE) (Lonza CC-2540,) corresponding to 2 different lots derived from 2 human healthy donors, henceforth referred to as donors #1 and #2, were purchased from Lonza, who provided the cells after obtaining permission for use in research applications by informed consent. Cells were cultured in 5% CO2 at 37°C according to the manufacturer´s instructions using Lonza´s Bronchial Epithelial Basal Medium (BEBM) (CC-3171) supplemented with Lonza´s Bronchial Epithelial Cell Growth Medium bullet kit (BEGM) (CC-4175), and grown in collagen coated T-75 and T-175 tissue culture flasks as required (Becton Dickinson 356485 and 356487). Subculturing after trypsinization and amplification was performed using Lonza´s reagent pack subculture reagents (CC-5034) following the manufacturer´s instructions. CHO-K1 and THP-1 cells were purchased from the ATCC through LGC standards (ATCC CCL-61 and TIB-202 respectively). The LAD2 cell line is a human mast cell line established at the National Institutes of Health (Bethesda, Maryland, U.S.).
Quantification of enzymatic p38 activity and p38-dependent TNF production in THP-1 cells was performed as previously described. Enzymatic Syk kinase activity assays and Syk dependent LAD2 cells degranulation assays were performed as previously described. PI3Kδ dependent pAkt phosphorylation in macrophage colony-stimulating factor (M-CSF) stimulated THP-1 cells was measured as previously described.

[1] = test system: TSLP production in NHBE cells; assay: TSLP HTRF assay (TSLP production in poly I:C / IL-4 stimulated NHBE cells); assay type: cell-based, human
Procedure: For dose response curves determinations, stocks of test compounds at a concentration of 1.33x10^-3 M in DMSO were sequentially diluted at 1:4 dilution steps before further 1/50 dilution in BEBM medium containing 1x ITS and 0.1% BSA. For the highest 4 μM concentration test compounds were resuspended in DMSO at a concentration of 2.5x10^-3 M and diluted 1/25 in BEBM medium containing 1x ITS and 0.1% BSA before adding 1 μl to the wells containing the cells.
All subsequent steps were automated using a Sciclone® G3 workstation (Perkin Elmer) with a Twister™ II robot (Perkin Elmer). […] 1 μl of test compound solution prepared at 25x concentration was added to the wells containing NHBE cells. The plates were then incubated during 90 minutes at 37°C, 5% CO2, 90% humidity before adding poly I:C (Invivogen HMW Tirl-pic-5) and human IL-4 (Peprotech 200–04) stimulus in 4 μl of BEBM medium containing 1x ITS, 0.1% BSA and 0.1% DMSO using a Multidrop™. […] Cells were then incubated for 24h in the presence of test compounds and stimulus at 37°C, 5% CO2 and 90% humidity conditions. After the 24h incubation period the plates were transferred to a CyBi®-Well platform (CyBio AG) to collect 10 μl of the supernatants which were transferred to a new plate. TSLP levels in the supernatant were determined using a homogeneous Time-Resolved Fluorescence (HTRF) assay custom developed by Cisbio. The assay was based in the use of a donor dye (europium cryptate) coupled to a monoclonal anti-TSLP antibody and an acceptor dye (d2) coupled to a second polyclonal anti-TSLP antibody. […] 10 μl of the resulting solution was then used to determine TSLP levels as described above.
The standard curve was built with eight points prepared in ITS/BSA in BEBM medium without supplements, starting at 700 pg/ml and diluted 1:2, with medium alone being zero TSLP. Fitting model corresponded to equation 100 of Excel fit software. Data from the primary phenotypic screen was visualized using Vortex (Dotmatics). […] For compound selection the maximum inhibition of the two individual duplicate values was taken into account. Dose response confirmation was performed at single point in the 2 donors tested. 9 point curves were run starting at 4 μM concentration by doing serial 1:4 dilutions in cells derived from both donors.

CHO-K1 cells = assay: CHO-K1 viability (ATPlite); assay type: cell-based
Procedure: The viability of NHBE and CHO-K1 cells was quantified using ATP as an indirect read out of the potential cytotoxicity of the compounds. […] Plates were shaken and covered with aluminium foil for 25 min. Luminescence was measured in an Envision reader (Perkin Elmer). Evaluation of viability in CHO-K1 cells was used as an internal compound cytotoxicity standard across cellular assays. […] The plates were incubated for 24 h at 37°C in 5% CO2. After the incubation period, the culture medium was removed and washed with 100 μl of DPBS. Test compounds were dissolved and serially diluted in 100% DMSO. A final 1/100 dilution of each concentration was performed using F12 culture medium with 0.5% FBS. A volume of 100 μl culture medium containing the compounds or 1% DMSO (for control wells) was added to the wells containing the cells and the plate was incubated again 24h. After 24h of compound exposure, cells were washed with DPBS. Then, 100 μl of PBS were added, followed by the addition of 100 μl of ATPlite™ reagent. The plate was shaken for 25 minutes using a microtiter plate shaker. Luminescence was measured using a Luminoskan Ascent luminometer (Thermo Fisher Scientific).
For CHO-K1 viability assays, a standard curve of cells was included in the plate. Luminescence values versus cell number were plotted and the data adjusted to a linear equation. Luminescence values of the samples were interpolated to obtain number of cells. IC50 values were obtained by non-linear regression using Activity Base software (IDBS) and a four-parameter log equation.

[2] = individual values, read-out: Biochemical activity (IC50, mM) (Syk)
[3] = Homo sapiens, LAD2, geometric mean, read-out: Activity in reference cell based assay (IC50, μM) (95% CI) LAD2 cells degranulation
[4] = Homo sapiens, LAD2, individual values, read-out: Cellular activity (IC50, mM) LAD2 cells degranulation
[5] = individual values, read-out: Cellular activity (IC50, mM) LAD2 cells degranulation
[6] = Homo sapiens, NHBE, 24 h, NHBE cells donor #1, poly I:C / IL-4, 24h, geometric mean, read-out: Inhibition of TSLP protein production (IC50, μM) (95% CI)
[7] = individual values, donor #1, read-out: Inhibition of TSLP production in NHBE (IC50)
[8] = Cricetulus griseus, CHO-K1, geometric mean, read-out: Inhibition of CHO viability (IC50, μM) (95% CI)
[9] = individual values, read-out: Inhibition of CHO viability (IC50 mM)
[10] = geometric mean, read-out: Activity in reference biochemical assay (IC50, μM) (95% CI) Syk

| Structure (SMILES) | IC50 (Syk; [2]) | IC50 (LAD2 cells degranulation; [3]) | IC50 (LAD2 cells degranulation; [4]) | IC50 (LAD2 cells degranulation; [5]) | IC50 [1, 6] | IC50 [1, 7] | IC50 (CHO-K1 cells; [8]) | IC50 (CHO-K1 cells; [9]) | IC50 (Syk; [10]) | Inhibition of CHO viability % Inhibition ± SD at 3.75 μM (CHO-K1 cells) | Inhibition of CHO viability % at 3.75 micromolar (CHO-K1 cells; individual values) | IC50 (CHO-K1 cells; Cricetulus griseus, CHO-K1, individual values, read-out: Inhibition of CHO viability (IC50 mM)) | Inhibition of CHO viability % Inhibition ± SD at 3.12 μM (CHO-K1 cells; 3.12 μM) | Inhibition of CHO viability % at 3.12 micromolar (CHO-K1 cells; individual values) |
| --- | --- | --- | --- | --- | --- | --- | --- | --- | --- | --- | --- | --- | --- | --- |
| CCn1cc(-c2cccc(-c3cnc(N)c(C(=O)NC4C5CC6CC4CC(O)(C6)C5)n3)c2)cn1 (centres unmarked) [compound 9] | 24 nM and 22 nM | 0.182 µM | 0.183 µM | 0.181 µM | 0.302 µM | 0.584 µM and 0.2 µM and 0.237 µM | 7 µM | 8.21 µM and 7.68 µM and 4.44 µM and 9.37 µM and 6.42 µM | – | – | – | – | – | – |
| COc1cc(-c2cnn(C)c2)cc(-c2cnc(N)c(C(=O)N[C@@H]3[C@@H]4C[C@@H]5C[C@H]3C[C@@](O)(C5)C4)n2)c1 [compound 10] | 33.8 nM and 33.1 nM | 0.118 µM | 0.124 µM | 0.113 µM | 0.277 µM | 0.584 µM and 0.198 µM and 0.184 µM | – | – | 33 nM | 35.3 % ± 5.5 | 42.5% and 36.2% and 31.8% and 30% | – | – | – |
| Nc1ncc(-c2cccc(-c3cccnc3)c2)nc1C(=O)NC1C2CC3CC1CC(O)(C3)C2 (centres unmarked) [compound 11] | 62 nM and 71 nM | 0.26 µM | 0.313 µM | 0.217 µM | 1.14 µM | 1.45 µM and 1.79 µM and 0.56 µM | 7.85 µM | 8.4 µM and 7.19 µM and 7.56 µM | 66 nM | – | – | 8.33 µM | – | – |
| Cn1cc(-c2cccc(-c3cnc(N)c(C(=O)NC4C5CC6CC4CC(O)(C6)C5)n3)c2)cn1 (centres unmarked) [compound 12] | 25 nM and 21 nM | 0.118 µM | 0.107 µM | 0.131 µM | 0.253 µM | 0.376 µM and 0.251 µM and 0.172 µM | – | – | 22 nM | 19 % ± 1 | 20.7% and 17.8% and 20.2% and 20.8% | – | – | – |
| Nc1ncc(-c2ccc3[nH]ncc3c2)nc1C(=O)NC1C2CC3CC1CC(O)(C3)C2 (centres unmarked) [compound 13] | 397 nM and 280 nM | – | – | – | 0.19 µM | 0.365 µM and 0.164 µM and 0.116 µM | – | – | 334 nM | – | – | – | 36 % ± 3 | 39.6% and 37.7% and 35.3% and 31.4% |
| Nc1ncc(-c2ccc3cn[nH]c3c2)nc1C(=O)NC1C2CC3CC1CC(O)(C3)C2 (centres unmarked) [compound 14] | 209 nM and 159 nM | 0.403 µM | 0.409 µM | 0.398 µM | 0.359 µM | 0.237 µM and 0.804 µM and 0.244 µM | – | – | – | 42 % ± 10 | 51.55% and 51.37% and 30.13% and 37.95% | – | – | – |
| COc1ccc(N(C)c2nc(C)nc3ccccc23)cc1 [compound 16] | – | – | – | – | 0.007 µM | – | 28.8 µM | – | – | – | – | – | – | 1.13% and 6.28% and -14.28% and -12.18% |
